This note sets out measurements from article PMC9294993 (ACS chemical biology, 2022).

SMILES strings stand for the structures.

The target in the assay is KfoC (Escherichia coli, UniProt Q8L0V4). As to the kind of experiment: preparative synthesis, HPLC. Type of assay: biochemical. Conditions: acceptor elongated to CS 7-mer.
Sequence of KfoC (Q8L0V4 whole entry): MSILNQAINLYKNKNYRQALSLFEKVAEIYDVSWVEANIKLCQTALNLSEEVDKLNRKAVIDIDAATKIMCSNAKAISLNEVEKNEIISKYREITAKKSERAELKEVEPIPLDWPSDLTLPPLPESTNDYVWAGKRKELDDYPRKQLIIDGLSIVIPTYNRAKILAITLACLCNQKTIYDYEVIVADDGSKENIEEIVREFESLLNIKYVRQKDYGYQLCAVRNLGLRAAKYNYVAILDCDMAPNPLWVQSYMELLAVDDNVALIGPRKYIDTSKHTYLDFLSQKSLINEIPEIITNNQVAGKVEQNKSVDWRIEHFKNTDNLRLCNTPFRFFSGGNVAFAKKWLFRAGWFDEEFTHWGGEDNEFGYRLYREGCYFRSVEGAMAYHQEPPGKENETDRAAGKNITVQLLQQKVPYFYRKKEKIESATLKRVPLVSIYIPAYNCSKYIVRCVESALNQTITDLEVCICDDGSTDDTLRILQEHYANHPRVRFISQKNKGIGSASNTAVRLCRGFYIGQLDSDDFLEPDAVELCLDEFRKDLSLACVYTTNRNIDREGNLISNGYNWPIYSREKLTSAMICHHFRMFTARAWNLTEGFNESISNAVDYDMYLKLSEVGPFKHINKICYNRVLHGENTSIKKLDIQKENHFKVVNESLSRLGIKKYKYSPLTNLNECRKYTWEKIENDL

For the compound `O=C(O)[C@H]1O[C@@H](Oc2ccc([N+](=O)[O-])cc2)[C@H](O)[C@@H](O)[C@@H]1O` [4-nitrophenyl-β-D-glucuronide], the “preparative synthesis, HPLC” value is recorded as “GlcA-pNP was first elongated to heptasaccharide CS 7-mer by KfoC”.
